Measured values published in paper PMC7400207, “It Takes Two: Dimerization Is Essential for the Broad-Spectrum Predatory and Defensive Activities of the Venom Peptide Mp1a from the Jack Jumper Ant Myrmecia pilosula” (Biomedicines, 2020).
≈ marks a conversion by molar mass, not a printed value. Where “and” joins values, the source holds several entries; their conditions need not be identical. Equal entries are not always repeated.

Legend:
[1] = system: K. pneumoniae ATCC 700603; conditions: taken from Dekan et al.; cited from earlier work
[2] = system: F11 cells; experiment: FLIPR calcium assay, activation of F11 cells; assay type: cell-based; conditions: F11 cells, FLIPR
Description: F11 cells were cultured as previously described. Cells were maintained on Ham’s F12 media supplemented with 10% fetal bovine serum (FBS), 100 µM hypoxanthine, 0.4 µM aminopterin, and 16 µM thymidine (Hybri-MaxTM, Sigma Aldrich, North Ryde, Australia). Then, 384-well imaging plates (Corning) were seeded 48 h prior to imaging resulting in 90–95% confluence at imaging. Cells were incubated for 30 min with the Calcium 4 assay component A according to the manufacturer’s instructions (Molecular Devices, Sunnyvale, CA, USA) in physiological salt solution (PSS; composition in mM: 140 NaCl, 11.5 D-glucose, 5.9 KCl, 1.4 MgCl2, 1.2 NaH2PO4, 5 NaHCO3, 1.8 CaCl2, 10 HEPES) at 37°C. Fluorescence was measured using a fluorescent imaging plate reader (FLIPR^TETRA) equipped with a CCD camera (Excitation: 470–490 nm, Emission: […]) (Molecular Devices, Sunnyvale, CA, USA). Signals were read every second for 10 s before, and 300 s after the addition of peptides in PSS supplemented with 0.1% bovine serum albumin. All data are the mean ± SEM of assays performed in triplicate. Maximum–minimum fluorescence in the 300 s period after peptide addition was recorded as the response. Concentration–response data were fitted with a four-parameter Hill equation (variable slope) using GraphPad Prism 8 to obtain effective concentration (EC50) values.

[3] = system: K. pneumoniae ATCC BAA-2146; conditions: taken from Dekan et al.; cited from earlier work
[4] = system: Drosophila melanogaster; experiment: Drosophila melanogaster microinjection assay; assay type: in vivo; conditions: intrathoracic injection, 50 nL, adult female flies, lethality at 24 h; three dose-response curves, ± SEM
Description: The insecticidal activity of the chemically synthesized 1a and analogues thereof were determined by injection into adult female D. melanogaster aged 3–5 days (mass 0.7–0.9 mg) as described previously. Analogues were dissolved in water and intrathoracically injected using pulled glass capillaries at a volume of 50 nL per fruit fly, and the results were compared against an equivalent injection volume of water alone. All injections were performed in the morning or early afternoon. At 24 h post-injection flies were monitored for lethality. Dose–response curves were constructed using 7–10 doses per analogue (each dose tested in eight flies) and three separate dose–response curves were constructed for each analogue. The lethality in the groups receiving the analogues were adjusted using the respective control group lethality using the Henderson-Tilton formula [20]. The median lethal dose (LD50) of each analogue was calculated based on the three dose–response curves using GraphPad Prism 8.0 [21]. One-way ANOVA followed by Dunnett’s multiple comparison test were used to compare LD50 values.

[5] = system: S. aureus NRS 1; conditions: taken from Dekan et al.; cited from earlier work
[6] = system: HEK293 cells; conditions: HEK293, 24 h, resazurin; cited from earlier work
Description: Table 2 Summary of bioassay data for synthetic Mp1a and analogues, including effective concentration (EC50) for activation of F11 cells, concentrations that caused 50% inhibition (IC50) for inhibition of larval development of H. contortus; median lethal dose (LD50) for lethal insecticidal effects on D. melanogaster; concentrations required to induce 50% cell death (CC50) for effects on viability o | column: Cytotoxicity (CC50 µM) ^b

[7] = system: S. aureus ATCC 43300; conditions: taken from Dekan et al.; cited from earlier work
[8] = system: E. coli ATCC 25922; conditions: taken from Dekan et al.; cited from earlier work
[9] = system: S. aureus NARSA-VRS1; conditions: taken from Dekan et al.; cited from earlier work
[10] = system: mouse dorsal root ganglion (DRG) cells; experiment: Calcium imaging of mammalian sensory neurons; assay type: cell-based; conditions: 1 µM peptide, Fluo-4 calcium imaging, neuronal and non-neuronal cells
Description: Calcium imaging of a heterogenous population of mouse dorsal root ganglion (DRG) sensory neurons was performed as previously described. In brief, dorsal root ganglion (DRG) cells isolated from 4–8-week-old male C57BL/6 mice under ethics approval TRI/IMB/093/17 (University of Queensland Animal Ethics Committee, approval date 31/03/2017) were dissociated and then plated in Dulbecco’s modified Eagle’s medium (Gibco, Grand Island, NY, USA) containing 10% fetal bovine serum (FBS; Assaymatrix, Melbourne, Australia) and penicillin/streptomycin (Gibco) on a 96-well poly-D-lysine–coated culture plate (Corning, Lowell, MA, USA), and maintained overnight. Cells were loaded with Fluo-4 AM calcium indicator as per the manufacturer’s instructions (Thermo Fisher Scientific, Grand Island, NY, USA). After loading for 1 h, the dye solution was replaced with assay solution (Hanks’ balanced salt solution and 20 mM HEPES). Fluorescence corresponding to intracellular calcium ([Ca^2+]i) of typically 100–150 DRG cells per experiment was monitored in parallel using a Nikon Ti-E deconvolution inverted microscope, equipped with a Lumencor Spectra LED light source. Images were acquired at a 20× objective at one frame/s (excitation 485 nm; emission 521 nm). For each experiment, baseline fluorescence was monitored for 30 s and then a wash of assay solution was applied.

Q: With `CC[C@H](C)[C@H](N)C(=O)N[C@@H](CC(=O)O)C(=O)N[C@@H](Cc1c[nH]c2ccccc12)C(=O)N[C@@H](CCCCN)C(=O)N[C@@H](CCCCN)C(=O)N[C@H](C(=O)N[C@@H](CC(=O)O)C(=O)N[C@@H](Cc1c[nH]c2ccccc12)C(=O)N[C@@H](CCCCN)C(=O)N[C@@H](CCCCN)C(=O)N[C@H](C(=O)N[C@@H](CO)C(=O)N[C@@H](CCCCN)C(=O)N[C@@H](CCCCN)C(=O)N[C@H](C(=O)N[C@H]1CSSC[C@@H](C(=O)N[C@@H](CCCCN)C(=O)N[C@@H](CCCCN)C(=O)N[C@H](C(=O)N[C@@H](CC(C)C)C(=O)N[C@@H](CCCCN)C(=O)N[C@@H](CCC(N)=O)C(N)=O)C(C)C)NC(=O)[C@H](C(C)C)NC(=O)[C@H]([C@@H](C)O)NC(=O)[C@H](CCCCN)NC(=O)[C@H](C(C)C)NC(=O)[C@H](CC(C)C)NC(=O)[C@H](C(C)C)NC(=O)[C@@H](NC(=O)[C@@H](NC(=O)CNC(=O)[C@H](CCCCN)NC(=O)[C@H](CO)NC(=O)[C@@H](NC(=O)[C@H](CC(C)C)NC(=O)CNC(=O)[C@@H](NC(=O)[C@@H](N)CC(C)C)[C@@H](C)CC)C(C)C)[C@@H](C)O)CSSC[C@@H](C(=O)N[C@@H](CCCCN)C(=O)N[C@@H](Cc2ccccc2)C(=O)N[C@@H](CC(C)C)C(N)=O)NC(=O)[C@H](C)NC(=O)[C@H](CCCCN)NC(=O)[C@H](CC(C)C)NC(=O)[C@H](CCSC)NC(=O)[C@H](C(C)C)NC(=O)[C@H](CCCCN)NC1=O)[C@@H](C)O)C(C)C)C(C)C` [Analogue 1a, ∆-myrtoxin-Mp1a] as the molecule, how does the MIC [1] read?
A: The MIC was 0.4 to 0.8 µM.

Q: What about the “Concentration at which cytolysis (rapid increase in fluorescence followed by decrease to or below baseline) was observed” value [2] of the same molecule?
A: Its value is no less than 1 µM.

Q: What about the EC50 ([2]; Calcium 4 dye, max-min fluorescence in 300 s after peptide addition, PSS with 0.1% BSA, mean ± SEM, triplicate, read-out: Neuronal Cell Activation (EC50)) of the same molecule?
A: Its EC50 is 850 ± 30 nM.

Q: What about the MIC [3] of the same molecule?
A: Its MIC is 0.1 to 0.2 µM.

Q: What about the “Insecticidal Activity (LD50)” value [4] of the same molecule?
A: The value was 260 pmol/g and 260.1 ± 16.6 pmol/g.

Q: What about the MIC [5] of the same molecule?
A: The MIC was 3.2 µM (≈ 17.9 µg/mL).

Q: And the “Cytotoxicity (CC50)” value [6]?
A: Its value is 600 nM.

Q: What about the MIC [7] of the same molecule?
A: The MIC was 0.8 µM (≈ 4.49 µg/mL).

Q: And the MIC [8]?
A: Its MIC is 0.1 to 0.2 µM.

Q: What about the MIC [9] of the same molecule?
A: Its MIC is 3.2 to 6.4 µM.

Q: What about the “Effect on [Ca2+]i of DRG cells” value [10] of the same molecule?
A: The value was “rapid increase in [Ca^2+]i in all cells”.
